Measurements: patent publication US9266904B2, “6-bridged heteroaryldihydropyrimidines for the treatment and prophylaxis of hepatitis B virus infection” (priority 2013, dated 2016)
Read-outs that look alike come from different tables or passages of the source.

Key:
[1] = system: HBV replication in HepG2.2.15 cells; assay: Anti-HBV activity in vitro in HepG2.2.15 cells (extracellular HBV DNA by qPCR); type: cell-based; details: read-out: EC50
Source text: HepG2.2.15 and HepDE19 are stably-transfected cell lines containing the HBV genome. Both cell lines are derived from the hepatoblastoma cell line Hep G2 (American Type Culture Collection, ATCC® HB-8065™) by the published procedures described in references: M A Selles et al. Proc. Natl. Acad. Sci. USA 1987, 84, 1005-1009 and H Guo et al. Journal of Virology 2007, 81, 12472-12484, respectively. Both cell lines were maintained in Dulbecco's modified Eagle's medium (DMEM)-F12 medium supplemented with 10% fetal bovine serum, 100 U/mL penicillin, 100 μg/mL streptomycin, and 0.5 mg/mL of G418.
While HepG2.2.15 cells constitutively support HBV replication and production of virus particles, HepDE19 cells are inducible by tetracycline. Addition of 1 μg/mL tetracycline in culture medium suppresses HBV replication in HepDE19 cells, whereas switching to tetracycline-free medium resumes this process.
HepG2.2.15 cells were seeded into 96-well plates (3×10^4 cells in 100 μL media per well) and incubated overnight at 37° C. The test compounds were serially half-log diluted in DMSO, then diluted 100 times in culture media. 100 μL diluted compounds were added into the plates to reach 0.5% final concentration of DMSO in every well. Five days after compound treatment, culture supernatant was collected for further analysis.
For quantitative PCR detection of extracellular HBV DNA, 100 μL culture supernatant was collected and processed in MagNA Pure 96 Nucleic Acid Purification System (Roche Applied Science) for viral DNA extraction. The extracted samples were subjected to HBV DNA quantification by qPCR. The effective compound concentration at which HBV replication is inhibited by 50% (EC50) was determined.
The Examples were tested in the above assays as described herein and found to have EC50<1 μM in HepG2.2.15 assay.

[2] = Human microsomal clearance assay; type: in vitro ADME
Protocol: Microsomes were preincubated with test compound for 10 minutes at 37° C. in 100 mM phosphate buffer with pH 7.4. The reactions were initiated by adding NADPH regenerating system to give a final incubation volume of 400 μL. The incubations finally contained 1 μM test compound, 0.5 mg/mL liver microsomal protein, 3.0 mM glucose 6-phosphate, 1.0 mM NADP, 3.0 mM MgCl2 and 0.05 mg/mL glucose 6-phosphate dehydrogenase in 100 mM phosphate buffer with pH 7.4. After incubation times of 0, 3, 6, 9, 15 and 30 minutes, 50 μL, incubation was transferred to the quench solution containing the internal standard which was 2 μM tolbutamide. After precipitation and centrifugation, test compound concentrations in the samples were determined by LC-MS/MS. Controls of no NADPH regenerating system at zero and 30 minutes were also prepared and analyzed.

[3] = Hepatitis B virus, HepG2.2.15, Anti-HBV activity in HepG2.2.15 cells

SMILES | EC50 [1, 3] | CLh ([2]; human, 1 μM, pH 7.4) | EC50 ([1]; Anti-HBV activity in HepG2.2.15 cells) | CLh ([2]; human microsomal clearance)
COC(=O)C1=C(CN2[C@H]3C[C@@H](CC(=O)O)C[C@@H]2C(F)(F)C3)NC(c2nccs2)=N[C@H]1c1ccc(F)cc1Cl [Example 87, 2-[(1S,3R,5R)-8-[[(4R)-4-(2-chloro-4-fluoro-phenyl)-5-methoxycarbonyl-2-thiazol-2-yl-1,4-dihydropyrimidin-6-yl]methyl]-6,6-difluoro-8-azabicyclo[3.2.1]octan-3-yl]acetic acid] | 39.4 nM | 0 mL/min/kg | – | –
COC(=O)C1=C(CN2[C@H]3C[C@@H](CC(=O)O)C[C@@H]2C(F)(F)C3)NC(c2nccs2)=N[C@H]1c1cccc(F)c1Cl [Example 89, 2-[(1S,3R,5R)-8-[[(4R)-4-(2-chloro-3-fluoro-phenyl)-5-methoxycarbonyl-2-thiazol-2-yl-1,4-dihydropyrimidin-6-yl]methyl]-6,6-difluoro-8-azabicyclo[3.2.1]octan-3-yl]acetic acid] | 30.5 nM | 0 mL/min/kg | – | –
COC(=O)C1=C(CN2[C@H]3C[C@@H](CC(=O)O)C[C@@H]2C(F)(F)C3)NC(c2nccs2)=N[C@H]1c1ccccc1Cl [Example 91, 2-[(1S,3R,5R)-8-[[(4R)-4-(2-chlorophenyl)-5-methoxycarbonyl-2-thiazol-2-yl-1,4-dihydropyrimidin-6-yl]methyl]-6,6-difluoro-8-azabicyclo[3.2.1]octan-3-yl]acetic acid] | 90.7 nM | 5.1 mL/min/kg | – | –
CCOC(=O)C1=C(CN2[C@@H]3C[C@H](CC(=O)O)C[C@H]2C(F)(F)C3)NC(c2nccs2)=N[C@H]1c1ccccc1Br [Example 92, 2-[(1R,3S,5S)-8-[[(4R)-4-(2-bromophenyl)-5-ethoxycarbonyl-2-thiazol-2-yl-1,4-dihydropyrimidin-6-yl]methyl]-6,6-difluoro-8-azabicyclo[3.2.1]octan-3-yl]acetic acid] | 1.5 nM | 1.7 mL/min/kg | – | –
CCOC(=O)C1=C(CN2[C@H]3C[C@@H](CC(=O)O)C[C@@H]2C(F)(F)C3)NC(c2nccs2)=N[C@H]1c1ccccc1Br [Example 93, 2-[(1S,3R,5R)-8-[[(4R)-4-(2-bromophenyl)-5-ethoxycarbonyl-2-thiazol-2-yl-1,4-dihydropyrimidin-6-yl]methyl]-6,6-difluoro-8-azabicyclo[3.2.1]octan-3-yl]acetic acid] | 28.9 nM | 0.2 mL/min/kg | – | –
COC(=O)C1=C(CN2[C@@H]3C[C@H](CC(=O)O)C[C@H]2C(F)(F)C3)NC(c2nccs2)=N[C@H]1c1cccc(F)c1Br [Example 94, 2-[(1R,3S,5S)-8-[[(4R)-4-(2-bromo-3-fluoro-phenyl)-5-methoxycarbonyl-2-thiazol-2-yl-1,4-dihydropyrimidin-6-yl]methyl]-6,6-difluoro-8-azabicyclo[3.2.1]octan-3-yl]acetic acid] | 21.7 nM | 0 mL/min/kg | – | –
COC(=O)C1=C(CN2[C@H]3C[C@@H](CC(=O)O)C[C@@H]2C(F)(F)C3)NC(c2nccs2)=N[C@H]1c1cccc(F)c1Br [Example 95, 2-[(1S,3R,5R)-8-[[(4R)-4-(2-bromo-3-fluoro-phenyl)-5-methoxycarbonyl-2-thiazol-2-yl-1,4-dihydropyrimidin-6-yl]methyl]-6,6-difluoro-8-azabicyclo[3.2.1]octan-3-yl]acetic acid] | 31.1 nM | 0 mL/min/kg | – | –
COC(=O)C1=C(CN2[C@@H]3C[C@H](CC(=O)O)C[C@H]2C(F)(F)C3)NC(c2nccs2)=N[C@H]1c1ccc(Cl)c(F)c1 [Example 96, 2-[(1R,3S,5S)-8-[[(4S)-4-(4-chloro-3-fluoro-phenyl)-5-methoxycarbonyl-2-thiazol-2-yl-1,4-dihydropyrimidin-6-yl]methyl]-6,6-difluoro-8-azabicyclo[3.2.1]octan-3-yl]acetic acid] | 6.8 nM | 1.8 mL/min/kg | – | –
COC(=O)C1=C(CN2[C@H]3C[C@@H](CC(=O)O)C[C@@H]2C(F)(F)C3)NC(c2nccs2)=N[C@H]1c1ccc(Cl)c(F)c1 [Example 97, 2-[(1S,3R,5R)-8-[[(48)-4-(4-chloro-3-fluoro-phenyl)-5-methoxycarbonyl-2-thiazol-2-yl-1,4-dihydropyrimidin-6-yl]methyl]-6,6-difluoro-8-azabicyclo[3.2.1]octan-3-yl]acetic acid] | – | – | 156 nM | 0 mL/min/kg
CCOC(=O)C1=C(CN2[C@@H]3C[C@H](CC(=O)O)C[C@H]2C(F)(F)C3)NC(c2nccs2)=N[C@H]1c1cccc(F)c1Cl [Example 98, 2-[(1R,3S,5S)-8-[[(4R)-4-(2-chloro-3-fluoro-phenyl)-5-ethoxycarbonyl-2-thiazol-2-yl-1,4-dihydropyrimidin-6-yl]methyl]-6,6-difluoro-8-azabicyclo[3.2.1]octan-3-yl]acetic acid] | 0.7 nM | 4.5 mL/min/kg | – | –
CCOC(=O)C1=C(CN2[C@H]3C[C@@H](CC(=O)O)C[C@@H]2C(F)(F)C3)NC(c2nccs2)=N[C@H]1c1cccc(F)c1Cl [Example 99, 2-[(1S,3R,5R)-8-[[(4R)-4-(2-chloro-3-fluoro-phenyl)-5-ethoxycarbonyl-2-thiazol-2-yl-1,4-dihydropyrimidin-6-yl]methyl]-6,6-difluoro-8-azabicyclo[3.2.1]octan-3-yl]acetic acid] | 12.6 nM | 3 mL/min/kg | – | –
COC(=O)C1=C(CN2[C@@H]3COC[C@H]2[C@H](F)[C@@H](CC(=O)O)C3)NC(c2nccs2)=N[C@H]1c1cccc(F)c1Cl [Example 100, 2-[(1S,5S,6R,7R)-9-[[(4R)-4-(2-chloro-3-fluoro-phenyl)-5-methoxycarbonyl-2-thiazol-2-yl-1,4-dihydropyrimidin-6-yl]methyl]-6-fluoro-3-oxa-9-azabicyclo[3.3.1]nonan-7-yl]acetic acid] | 283 nM | 0 mL/min/kg | – | –
COC(=O)C1=C(CN2[C@H]3C[C@H](CC(=O)O)C[C@@H]2C(F)(F)C3)NC(c2nccs2)=N[C@H]1c1ccc(F)cc1Cl [Example 110, 2-[(1S,3S,5R)-8-[[(4R)-4-(2-chloro-4-fluoro-phenyl)-5-methoxycarbonyl-2-thiazol-2-yl-1,4-dihydropyrimidin-6-yl]methyl]-6,6-difluoro-8-azabicyclo[3.2.1]octan-3-yl]acetic acid] | 44.3 nM | 4.1 mL/min/kg | – | –
COC(=O)C1=C(CN2C3CCC2CN(C(C)=O)C3)NC(c2nccs2)=N[C@H]1c1ccc(F)cc1Cl [Example 122, Methyl (4R)-6-[(3-acetyl-3,8-diazabicyclo[3.2.1]octan-8-yl)methyl]-4-(2-chloro-4-fluoro-phenyl)-2-thiazol-2-yl-1,4-dihydropyrimidine-5-carboxylate] | 77.4 nM | 7.0 mL/min/kg | – | –
CCOC(=O)C1=C(CN2C3COCC2C(F)(F)[C@@H](CC(=O)O)C3)NC(c2nccs2)=N[C@H]1c1ccc(F)c(F)c1C (stereo partly drawn) [Example 127, 2-[(7R)-9-[[(4S)-4-(3,4-difluoro-2-methyl-phenyl)-5-ethoxycarbonyl-2-thiazol-2-yl-1,4-dihydropyrimidin-6-yl]methyl]-6,6-difluoro-3-oxa-9-azabicyclo[3.3.1]nonan-7-yl]acetic acid] | 16.1 nM | 2.9 mL/min/kg | – | –
CCOC(=O)C1=C(CN2C3COCC2C(F)(F)[C@@H](CC(=O)O)C3)NC(c2nccs2)=N[C@H]1c1cccc(F)c1Cl (stereo partly drawn) [Example 129, 2-[(7R)-9-[[(4R)-4-(2-chloro-3-fluoro-phenyl)-5-ethoxycarbonyl-2-thiazol-2-yl-1,4-dihydropyrimidin-6-yl]methyl]-6,6-difluoro-3-oxa-9-azabicyclo[3.3.1]nonan-7-yl]acetic acid] | 21 nM | 2.0 mL/min/kg | – | –
CCOC(=O)C1=C(CN2C3CC(C(=O)O)CC2C(F)(F)C3)NC(c2nccs2)=N[C@H]1c1cccc(F)c1Cl (stereo partly drawn) [Example 150, 8-[[(4R)-4-(2-chloro-3-fluoro-phenyl)-5-ethoxycarbonyl-2-thiazol-2-yl-1,4-dihydropyrimidin-6-yl]methyl]-6,6-difluoro-8-azabicyclo[3.2.1]octane-3-carboxylic acid] | 7.7 nM | 3.1 mL/min/kg | – | –
